US8367687B2, “Pyrazole derivatives” (Novartis AG, priority 2007, dated 2013)
Read-outs that look alike come from different tables or passages of the source.

Experiments:
CDK4 = CDK4 (Homo sapiens, UniProt P11802); assay: CDK4 HTRF; assay type: biochemical
CDK2 cyA = CDK2 cyA (Homo sapiens, UniProt P24941); assay: CDK2 cyA IMAP; assay type: biochemical
hCDK1/B = hCDK1/B (Homo sapiens, UniProt P06493); assay: hCDK1/B; assay type: biochemical
p-pRb/S780 = p-pRb/S780 ELISA Cellular Assay (CDK4 ELISA assay); assay type: cell-based; details: cells treated for 24 hrs
Protocol: Biological Activity p-pRb/S780 ELISA Cellular Assay
Maxisorp plates (Nunc 442404) are coated with 50 ul of 1 ug/mL total phospholated Retinoblast Protein (pRb) antibody (4H1 Cell Signaling 9309L) diluted in DPBS (Phosphate Buffered Saline) overnight at 4° C. The next day plates are blocked with Superblock in TBST (Pierce 37535) for one hour to overnight—changing block once during that time. Cells are plated at 50-60% confluency in a 96 well plate (Corning 3585) in 100 uL complete media (media containing fetal bovine serum (Gibco 1600-044), 2 mM L-Glutamine (Gibco 25030), and 1% Penicillin/Streptomycin (Gibco 15140-122) and grown overnight in a humidified chamber at 37° C. and 5% CO2. Compounds (in DMSO) are diluted in media to create a 7 point dilution series of compound with concentrations ranging from 110 uM to 0.027 uM. 10 ul of the diluted compounds are added to the cells, with final concentrations on cells ranging from 10 uM to 0.002 uM. Cells are treated for 24 hrs in a humidified chamber at 37° C. and 5% CO2. Following compound incubation, cells are lysed with 40 uL/well lysis buffer (50 mM Tris-HCL pH 7.5 (Invitrogen 15567-027), 120 mM NaCl (Promega V4221), 1 mM EDTA (Gibco 15575-038), 6 mM EGTA (Fisher 02783-100), 1% Nonidet P40 (Fluka R02771). Plates are placed on Titerplate shaker (Labline model 4625) for 5 minutes at 4° C. to lyse cells. After lysis, 10 ul of cell lysate and 50 ul 1×PBS/10% Superblock (Gibco 10010 and Pierce 37535) is added to each well of the precoated and blocked Maxisorp plate and allowed to bind at room temperature for 2 hours on Oribtron Rotator II (Boekel Industries Model 260250). Plates are then washed 3× with 1×TBST (Teknova T9201) using Biotek platewasher equipped with a Biostack. The final wash is not aspirated. The final wash is removed by flicking off and tapping plate on paper towels. ppRbS780 antibody (Cell Signaling 9307L) is diluted 1:1000 in 1×PBS/10% Superblock (Gibco 10010 and Pierce 37535) and 50 ul is added to each well. Plates are then incubated 1 hour on Oribtron Rotator II (Boekel Industries Model 260250). Plates are then washed as previously described. Goat anti-rabbit HRP (Promega W401B) is diluted 1:2500 1×PBS/10% Superblock (Gibco 10010 and Pierce 37535) and 50 ul is added to each well. Plates are then incubated 30 minutes on Oribtron Rotator II. Plates are then washed as previously described. 50 uL Ultra TMB ELISA (Pierce 34028) is then added to each well. Plates are incubated 5-20 minutes until blue color develops. 50 ul 2M Sulfuric acid (Mallinckrodt 2468-46) is then added to each well to stop the reaction. Absorbance at 450 nm for each plate is read on Spectramax Plus (Molecular Devices).

[1] = Table 1, read-out: CDK2 cyA IMAP
[2] = Table 1, read-out: CDK4 ELISA assay IC50
[3] = Table 2, read-out: CDK4 HTRF/ IC50
[4] = Table 2, read-out: CDK2cyA IMAP/ IC50
[5] = Table 2, read-out: p_pRb Cap EL/ IC50_ppRbinh

Chain of hCDK1/B (P06493 whole entry): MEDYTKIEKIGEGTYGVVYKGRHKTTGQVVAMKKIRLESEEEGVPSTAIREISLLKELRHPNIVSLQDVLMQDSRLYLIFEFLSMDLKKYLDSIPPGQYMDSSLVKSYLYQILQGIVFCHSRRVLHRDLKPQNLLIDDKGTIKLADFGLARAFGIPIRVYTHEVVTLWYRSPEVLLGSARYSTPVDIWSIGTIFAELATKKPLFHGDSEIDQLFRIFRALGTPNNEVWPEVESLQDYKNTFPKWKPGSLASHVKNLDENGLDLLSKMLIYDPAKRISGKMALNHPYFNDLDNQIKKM
Chain of hCDK1/B (P14635 whole entry partner): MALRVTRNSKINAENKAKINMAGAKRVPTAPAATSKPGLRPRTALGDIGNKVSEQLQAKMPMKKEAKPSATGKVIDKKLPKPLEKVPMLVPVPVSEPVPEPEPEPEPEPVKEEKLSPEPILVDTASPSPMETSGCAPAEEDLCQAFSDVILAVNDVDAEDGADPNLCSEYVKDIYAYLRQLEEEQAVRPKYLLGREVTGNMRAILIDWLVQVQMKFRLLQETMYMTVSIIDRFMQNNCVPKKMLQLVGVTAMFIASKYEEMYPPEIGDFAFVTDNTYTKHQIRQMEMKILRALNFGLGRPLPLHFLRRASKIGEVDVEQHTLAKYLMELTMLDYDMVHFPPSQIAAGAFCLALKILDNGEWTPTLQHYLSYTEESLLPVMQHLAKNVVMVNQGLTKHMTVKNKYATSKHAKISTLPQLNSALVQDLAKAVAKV
Chain of CDK4 (P11802 whole entry): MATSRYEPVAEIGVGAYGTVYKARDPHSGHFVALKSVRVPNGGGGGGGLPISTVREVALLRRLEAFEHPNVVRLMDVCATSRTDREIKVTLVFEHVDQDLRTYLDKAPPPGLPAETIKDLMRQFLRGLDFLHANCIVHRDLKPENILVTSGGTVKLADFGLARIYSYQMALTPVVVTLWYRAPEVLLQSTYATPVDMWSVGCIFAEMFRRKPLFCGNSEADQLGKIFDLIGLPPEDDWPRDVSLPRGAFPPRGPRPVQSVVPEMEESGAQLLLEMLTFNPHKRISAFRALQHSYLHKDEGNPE
Chain of CDK4 (P24385 whole entry partner): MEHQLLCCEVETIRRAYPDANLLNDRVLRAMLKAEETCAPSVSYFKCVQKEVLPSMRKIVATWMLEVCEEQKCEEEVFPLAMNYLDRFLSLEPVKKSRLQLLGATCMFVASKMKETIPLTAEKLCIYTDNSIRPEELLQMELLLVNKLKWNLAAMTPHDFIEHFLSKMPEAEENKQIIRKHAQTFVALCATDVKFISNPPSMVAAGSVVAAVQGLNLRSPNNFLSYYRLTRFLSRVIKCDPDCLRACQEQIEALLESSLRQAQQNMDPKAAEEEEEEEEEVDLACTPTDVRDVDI

IC50 (CDK4; Table 1, read-out: CDK4 HTRF) [µM] | IC50 (CDK2 cyA; [1]) [µM] | IC50 (hCDK1/B; Table 1) [µM] | IC50 (p-pRb/S780; [2]) [µM] | IC50 (CDK4; [3]) [µM] | IC50 (CDK2 cyA; [4]) [µM] | IC50 (hCDK1/B; Table 2) [µM] | IC50 (p-pRb/S780; [5]) [µM] | SMILES
 |  |  |  | < 5 | ≥ 15 | < 5 | < 15 | CC(C)c1n[nH]cc1-c1ccnc(NCCN(C(C)C)C(C)C)n1 [Example 146]
 |  |  |  | < 5 | ≥ 15 | ≥ 15 | < 15 | CCN(CC)CCNc1nccc(-c2c[nH]nc2C(C)C)n1 [Example 144]
 |  |  |  | < 10 | ≥ 15 | ≥ 15 | < 15 | Cc1n[nH]cc1-c1ccnc(NC2CCCN(C(=O)OC(C)(C)C)C2)n1 (stereo not shown) [Example 115]
 |  |  |  | < 1 | < 5 | < 5 | < 15 | Cc1n[nH]cc1-c1ccnc(NCc2cc(F)cc(F)c2)n1 [Example 135]
 |  |  |  | < 5 | ≥ 15 | < 15 | < 15 | COCCCNc1nccc(-c2c[nH]nc2C)n1 [Example 108]
 |  |  |  | < 10 | ≥ 15 | ≥ 15 | < 15 | COc1cccc(CNc2nccc(-c3c[nH]nc3C)n2)c1 [Example 107]
 |  |  |  | < 15 | ≥ 15 | ≥ 15 | < 15 | COc1cc(CNc2nccc(-c3c[nH]nc3C)n2)cc(OC)c1 [Example 133]
 |  |  |  | < 5 | < 10 | < 10 | < 15 | Cc1n[nH]cc1-c1ccnc(NCC2CC2)n1 [Example 124]
 |  |  |  | < 0.5 | < 5 | < 1 | < 10 | CCC(Nc1nccc(-c2c[nH]nc2C(C)C)n1)c1ccccc1 (stereo not shown) [Example 151]
 |  |  |  | < 0.05 | < 0.5 | < 0.5 | < 1 | CC(C)c1n[nH]cc1-c1ccnc(N[C@@H]2CCc3ccccc32)n1 [Example 176, (R)-Indan-1-yl-[4-(3-isopropyl-1H-pyrazol-4-yl)-pyrimidin-2-yl]-amine]
 |  |  |  | < 15 | ≥ 15 | ≥ 15 | < 15 | Cc1n[nH]cc1-c1ccnc(NCC(=O)OC(C)(C)C)n1 [Example 129]
 |  |  |  | < 0.05 | < 1 | < 0.5 | < 5 | CC(C)c1n[nH]cc1-c1ccnc(NC2CCN(C)CC2)n1 [Example 139]
 |  |  |  | < 5 | < 15 | < 15 | < 15 | Cc1n[nH]cc1-c1ccnc(NCCCO)n1 [Example 121]

Second part, the molecule before the results:

SMILES | IC50 (CDK4; Table 1, read-out: CDK4 HTRF) [µM] | IC50 (CDK2 cyA; [1]) [µM] | IC50 (hCDK1/B; Table 1) [µM] | IC50 (p-pRb/S780; [2]) [µM] | IC50 (CDK4; [3]) [µM] | IC50 (CDK2 cyA; [4]) [µM] | IC50 (hCDK1/B; Table 2) [µM] | IC50 (p-pRb/S780; [5]) [µM]
c1cc(-c2cn[nH]c2C2CCCC2)cc(NCCN2CCCCC2)n1 [Example 61] | < 5 | ≥ 15 | ≥ 15 | < 15 |  |  |  | 
CC(C)c1[nH]ncc1-c1ccnc(NCCCN(C)C)c1 [Example 16] | < 5 | ≥ 15 | ≥ 15 | < 15 |  |  |  | 
CC(C)c1[nH]ncc1-c1ccnc(NCc2ccc3c(c2)OCO3)c1 [Example 35] | < 5 | < 5 | < 5 | < 15 |  |  |  | 
CC(C)c1[nH]ncc1-c1ccnc(NCCN2CCOCC2)c1 [Example 32] | < 5 | < 10 | ≥ 15 | < 15 |  |  |  | 
CC(C)c1[nH]ncc1-c1ccnc(NCC2CCNCC2)c1 [Example 47] | < 10 | ≥ 15 | ≥ 15 | < 15 |  |  |  | 
CC(C)c1[nH]ncc1-c1ccnc(NC2CCC2)c1 [Example 2] | < 0.5 | < 0.5 | < 0.5 | < 1 |  |  |  | 
CC(C)c1n[nH]cc1-c1ccnc(NC2CN3CCC2CC3)n1 (stereo not shown) [Example 159] |  |  |  |  | < 0.05 | < 5 | < 0.5 | < 5
CC(C)c1[nH]ncc1-c1ccnc(NCc2cccc(C(F)(F)F)c2)c1 [Example 25] | < 5 | < 5 | < 5 | < 0.1 |  |  |  | 
CC(C)c1[nH]ncc1-c1ccnc(Nc2ccccc2)c1 [Example 48] | < 0.1 | < 0.05 | < 0.1 | < 1 |  |  |  | 
